{"source": "ChEMBL document CHEMBL4831556", "about": "“Discovery of a Novel Potent and Selective Calcium Release-Activated Calcium Channel Inhibitor: 2,6-Difluoro-N-(2'-methyl-3'-(4-methyl-5-oxo-4,5-dihydro-1,3,4-oxadiazol-2-yl)-[1,1'-biphenyl]-4-yl)benzamide. Structure-Activity Relationship and Preclinical Characterization” (J Med Chem, 2021)", "key": {"ORAI1/STIM1 [1]": {"target": "T1, ORAI1/STIM1 (Homo sapiens, UniProt Q13586+Q96D31)", "T1 sequence (Q96D31 whole entry)": "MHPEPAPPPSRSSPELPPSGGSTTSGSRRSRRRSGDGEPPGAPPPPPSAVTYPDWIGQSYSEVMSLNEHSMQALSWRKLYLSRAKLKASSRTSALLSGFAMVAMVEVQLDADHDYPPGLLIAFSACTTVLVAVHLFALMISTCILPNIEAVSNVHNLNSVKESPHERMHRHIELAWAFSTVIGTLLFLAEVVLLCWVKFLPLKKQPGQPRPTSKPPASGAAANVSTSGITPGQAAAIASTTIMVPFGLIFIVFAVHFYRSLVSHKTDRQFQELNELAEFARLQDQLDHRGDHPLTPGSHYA", "T1 sequence (Q13586 whole entry)": "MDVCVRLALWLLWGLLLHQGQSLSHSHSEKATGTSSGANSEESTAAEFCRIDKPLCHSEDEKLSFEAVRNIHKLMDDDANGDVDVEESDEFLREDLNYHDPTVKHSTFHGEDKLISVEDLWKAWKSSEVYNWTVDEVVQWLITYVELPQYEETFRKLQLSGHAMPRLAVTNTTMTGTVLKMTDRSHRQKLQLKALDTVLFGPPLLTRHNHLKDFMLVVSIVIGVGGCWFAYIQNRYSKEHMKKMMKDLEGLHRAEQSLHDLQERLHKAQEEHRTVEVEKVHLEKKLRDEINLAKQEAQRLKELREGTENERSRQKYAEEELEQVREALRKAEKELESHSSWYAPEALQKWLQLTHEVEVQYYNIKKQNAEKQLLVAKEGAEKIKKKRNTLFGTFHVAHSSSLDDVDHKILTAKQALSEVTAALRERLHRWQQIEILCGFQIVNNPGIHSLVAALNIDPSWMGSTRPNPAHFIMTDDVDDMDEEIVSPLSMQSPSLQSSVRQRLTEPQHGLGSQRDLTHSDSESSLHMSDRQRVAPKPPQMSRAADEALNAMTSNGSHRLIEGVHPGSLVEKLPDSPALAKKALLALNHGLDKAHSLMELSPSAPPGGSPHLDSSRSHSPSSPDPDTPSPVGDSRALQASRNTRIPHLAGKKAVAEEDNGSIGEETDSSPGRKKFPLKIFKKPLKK", "assay": "Inhibition of Orai1/STIM1 (unknown origin) expressed in HEK293 cells assessed as reduction in Ca2+-release activated Ca2+ entry current by manual patch clamp based electrophysiological method", "format": "cell-based"}, "[2]": {"assay": "AUClast in Lewis rat at 10 mg/kg, po measured upto 24 hrs by LC-MS/MS analysis", "format": "ADME, organism-based", "parameters": "route oral, dose 10 mg/kg, time <=24", "conditions": "in vivo"}, "[3]": {"target": "Protein orai-2/Stromal interaction molecule 1 (Homo sapiens, UniProt Q13586+Q96SN7)", "sequence (Q96SN7 whole entry)": "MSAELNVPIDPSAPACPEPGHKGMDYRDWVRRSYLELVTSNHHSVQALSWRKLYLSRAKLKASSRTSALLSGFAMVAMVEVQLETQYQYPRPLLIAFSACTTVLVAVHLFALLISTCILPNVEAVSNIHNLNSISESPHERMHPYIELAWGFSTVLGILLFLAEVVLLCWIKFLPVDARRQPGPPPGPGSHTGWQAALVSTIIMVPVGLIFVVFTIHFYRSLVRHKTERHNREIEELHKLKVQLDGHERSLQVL", "sequence (Q13586 whole entry)": "as the sequence (Q13586 whole entry) above", "assay": "Inhibition of Orai2/STIM1 (unknown origin)", "format": "protein-complex assay"}, "ORAI1/STIM1 [4]": {"target": "T1, ORAI1/STIM1", "assay": "Inhibition of Orai1/STIM1 (unknown origin)", "format": "protein-complex assay"}, "[5]": {"assay": "Inhibition of SOCE in rat RBL-2H3 cells preincubated for 5 mins with thapsigargin followed by calcium chloride addition and measured after 5 mins by Fura-2AM dye based analysis", "format": "cell-based"}, "[6]": {"target": "Stromal interaction molecule 1/Protein orai-3 (Homo sapiens, UniProt Q13586+Q9BRQ5)", "assay": "Inhibition of human STIM1/Orai3 expressed in HEK293 cells assessed as reduction in Orai3 current by electrophysiological method", "format": "cell-based"}, "ORAI1/STIM1 [7]": {"target": "T1, ORAI1/STIM1", "assay": "Inhibition of human STIM1/Orai1 expressed in HEK293 cells assessed as reduction in Orai1 current by electrophysiological method", "format": "cell-based"}, "[8]": {"assay": "Tmax in collagen-induced rheumatoid arthritis DBA/1J mouse model at 0.75 mg/kg, po administered once daily for 15 days", "format": "ADME, organism-based", "conditions": "in vivo, time 15 day"}, "[9]": {"assay": "Tmax in collagen-induced rheumatoid arthritis DBA/1J mouse model at 0.75 mg/kg, po administered once daily for 15 days in presence of 3 mg/kg compound 36", "format": "ADME, organism-based", "conditions": "in vivo, time 15 day"}, "in vivo [10]": {"assay": "in vivo", "conditions": "DBA/1J, mouse, po, 0.75 mg/kg"}, "in vivo [11]": {"assay": "in vivo", "conditions": "DBA/1J, mouse, po, 0.75 mg/kg", "remark": "listed apart in the source", "description": "Cmax in collagen-induced rheumatoid arthritis DBA/1J mouse model at 0.75 mg/kg, po administered once daily for 15 days"}, "[12]": {"assay": "AUClast in collagen-induced rheumatoid arthritis DBA/1J mouse model at 0.75 mg/kg, po administered once daily for 15 days", "format": "ADME, organism-based", "parameters": "route oral, time 15 day, dose 0.75 mg/kg", "conditions": "in vivo"}, "[13]": {"assay": "AUClast in collagen-induced rheumatoid arthritis DBA/1J mouse model at 0.75 mg/kg, po administered once daily for 15 days in presence of 3 mg/kg compound 36", "format": "ADME, organism-based", "parameters": "route oral, dose 0.75 mg/kg, time 15 day", "conditions": "in vivo"}, "[14]": {"assay": "Half life in Lewis rat at 10 mg/kg, po measured upto 24 hrs by LC-MS/MS analysis", "format": "ADME, organism-based", "conditions": "in vivo"}, "[15]": {"assay": "Oral bioavailability in Lewis rat at 10 mg/kg measured upto 24 hrs by LC-MS/MS analysis", "format": "ADME, organism-based", "conditions": "in vivo"}, "[16]": {"assay": "Clearance in Lewis rat at 1 mg/kg, iv measured upto 24 hrs by LC-MS/MS analysis", "format": "ADME, organism-based", "conditions": "in vivo"}, "[17]": {"assay": "AUClast in Lewis rat at 1 mg/kg, iv measured upto 24 hrs by LC-MS/MS analysis", "format": "ADME, organism-based", "parameters": "route intravenous, dose 1 mg/kg, time <=24", "conditions": "in vivo"}, "[18]": {"assay": "Inhibition of SOCE in human Jurkat E6.1 cells preincubated for 10 to 30 mins in presence of thapsigargin followed by calcium chloride addition and measured after 10 mins by FLIPR-tetra analysis", "format": "cell-based"}, "[19]": {"assay": "Volume of distribution at steady state in Lewis rat at 1 mg/kg, iv measured upto 24 hrs by LC-MS/MS analysis", "format": "ADME, organism-based", "conditions": "in vivo, read-out: Vdss"}, "[20]": {"assay": "Half life in Lewis rat at 1 mg/kg, iv measured upto 24 hrs by LC-MS/MS analysis", "format": "ADME, organism-based", "conditions": "in vivo"}, "[21]": {"assay": "Tmax in Lewis rat at 10 mg/kg, po measured upto 24 hrs by LC-MS/MS analysis", "format": "ADME, organism-based", "conditions": "in vivo"}, "[22]": {"assay": "Cmax in Lewis rat at 1 mg/kg, iv measured upto 24 hrs by LC-MS/MS analysis", "format": "ADME, organism-based", "parameters": "route intravenous, dose 1 mg/kg, time <=24", "conditions": "in vivo"}, "[23]": {"assay": "Tmax in Lewis rat at 1 mg/kg, iv measured upto 24 hrs by LC-MS/MS analysis", "format": "ADME, organism-based", "conditions": "in vivo"}, "[24]": {"assay": "Cmax in Lewis rat at 10 mg/kg, po measured upto 24 hrs by LC-MS/MS analysis", "format": "ADME, organism-based", "parameters": "route oral, dose 10 mg/kg, time <=24", "conditions": "in vivo"}}, "note": "pIC50: −log10 of the molar value.", "data": [{"smiles": "O=C(Nc1ccn(Cc2c(F)cccc2C(F)(F)F)n1)c1c(F)cccc1F", "values": [{"measurement": "pIC50", "setting": "ORAI1/STIM1 [1]", "result": 6.00}]}, {"smiles": "O=C(Nc1ccc(-c2cc(C(F)(F)F)ccc2Cl)cc1)c1c(F)cccc1F", "values": [{"measurement": "AUC(0-t) at 24 h", "setting": "[2]", "result": 0.93, "unit": "µM·h"}]}, {"smiles": "Cc1cccc(F)c1C(=O)Nc1cnc(-c2cc3c(cc2Cl)OC(F)(F)O3)cn1", "note": "[ZEGOCRACTIN]", "values": [{"measurement": "pIC50", "setting": "[3]", "result": 6.05}, {"measurement": "pIC50", "setting": "ORAI1/STIM1 [4]", "result": 6.92}]}, {"smiles": "O=C(Nc1ccc(-n2nc(C(F)(F)F)cc2C(F)(F)F)cc1)c1ccncc1F", "values": [{"measurement": "pIC50", "setting": "[5]", "result": 6.31}]}, {"smiles": "O=C(Nc1ccn(Cc2ccc(O)cc2C(F)(F)F)n1)c1c(F)cccc1F", "values": [{"measurement": "pIC50", "setting": "[6]", "result": 5.40}, {"measurement": "pIC50", "setting": "ORAI1/STIM1 [7]", "result": 5.40}]}, {"smiles": "Cc1ccc(C2=NOC(C)(C)C2=O)cc1-c1cnc(NC(=O)c2c(F)cccc2F)cn1", "values": [{"measurement": "AUC(0-t) at 24 h", "setting": "[2]", "result": 13, "unit": "µM·h"}]}, {"smiles": "CN(Cc1cnc2nc(N)nc(N)c2n1)c1ccc(C(=O)N[C@@H](CCC(=O)O)C(=O)O)cc1", "note": "[METHOTREXATE]", "values": [{"measurement": "Tmax", "setting": "[8]", "result": 1, "unit": "h"}, {"measurement": "Tmax", "setting": "[9]", "result": 1, "unit": "h"}, {"measurement": "Cmax at 360 h", "setting": "in vivo [10]", "result": 200, "unit": "nM"}, {"measurement": "Cmax at 360 h", "setting": "in vivo [11]", "result": 100, "unit": "nM"}, {"measurement": "AUC(0-t) at 360 h", "setting": "[12]", "result": 0.4, "unit": "µM·h"}, {"measurement": "AUC(0-t) at 360 h", "setting": "[13]", "result": 0.6, "unit": "µM·h"}]}, {"smiles": "Cc1ccc(-c2nn(C)c(=O)o2)cc1-c1ccc(NC(=O)c2c(F)cccc2F)cc1", "values": [{"measurement": "half-life", "setting": "[14]", "result": 15.2, "unit": "h"}, {"measurement": "bioavailability", "setting": "[15]", "result": 28, "unit": "%"}, {"measurement": "clearance", "setting": "[16]", "result": 1.4, "unit": "mL/min/kg"}, {"measurement": "AUC(0-t) at 24 h", "setting": "[17]", "result": 27, "unit": "µM·h"}, {"measurement": "pIC50", "setting": "[18]", "result": 6.85}, {"measurement": "Vd", "setting": "[19]", "result": 0.7, "unit": "L/kg"}, {"measurement": "half-life", "setting": "[20]", "result": 7, "unit": "h"}, {"measurement": "Tmax", "setting": "[21]", "result": 4.8, "unit": "h"}, {"measurement": "AUC(0-t) at 24 h", "setting": "[2]", "result": 75, "unit": "µM·h"}, {"measurement": "Cmax", "setting": "[22]", "result": 4400, "unit": "nM"}, {"measurement": "Tmax", "setting": "[23]", "result": 4.8, "unit": "min"}, {"measurement": "Cmax", "setting": "[24]", "result": 4100, "unit": "nM"}]}]}
